Format in all cases: in vivo
Data set [1] relates to Digitaria ciliaris. Kind of data set: Test Example 5: herbicidal effect by foliage application, plastic box (symbol F). To be noted: 320 g/ha, 3 weeks after application. An outline of the steps:
(§1)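 Effect is rated 3 weeks after a foliar spray of water-diluted emulsion concentrate at a predetermined herbicide amount. Plants had grown 14 days in a 25° C. to 30° C. greenhouse from seed in sterilized diluvial soil.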

Data set [2] deals with rapeseed. Kind of data set: Test Example 4: effect on crop by soil treatment (symbol g). To be noted: application herbicide amount 320 g/ha. Summed up:
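Greenhouse culture at 25° C. to 30° C. followed sowing of seed in spots on sterilized diluvial soil with a soil cover close to 1.5 cm thick.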

Data set [3] deals with Lolium multiflorum Lam. Kind of data set: Test Example 4: herbicidal effect by soil treatment (symbol K). To be noted: application herbicide amount 320 g/ha. An outline of the steps:
(§2)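 Seeds were sown in sterilized diluvial soil, covered with about 1.5 cm of soil, and the soil surface was sprayed with a water-diluted emulsion of the compound at a predetermined rate. Plants grew in a greenhouse at 25° C. to 30° C.; effects were scored visually 3 weeks after application.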

The subject of data set [4] is rice plant. Kind of data set: Test Example 5: effect on crop by foliage application, plastic box (symbol b). To be noted: 320 g/ha, 3 weeks after application. An outline of the steps:
(§3)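 Diluvial soil, sterilized and boxed (21 × 13 × 7 cm), received spot-sown seed covered by about 1.5 cm soil; plants were then greenhouse-grown at 25–30° C.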

In data set [5] the test system is Echinochloa crus-galli var. crus-galli. Kind of data set: Test Example 3: herbicidal effect by foliage application, Wagner pot (symbol H). To be noted: application herbicide amount 320 g/ha. An outline of the steps:
(§4)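 Rating at 3 weeks post-spray, by defined criteria. Treatment: emulsion diluted with water to a predetermined amount, applied evenly to foliage of 14-day-old plants raised in alluvial soil flooded 0.1–0.5 cm deep at 25–30 °C, rice co-sown.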

Data set [6] has the same test system. Kind of data set: Test Example 4: herbicidal effect by soil treatment (symbol H). To be noted: application herbicide amount 320 g/ha. Summed up: as §2
Data set [7] has as its system Avena fatua. Kind of data set: Test Example 5: herbicidal effect by foliage application, plastic box (symbol I). To be noted: 320 g/ha, 3 weeks after application. Summed up: as §1
Data set [8] relates to Leptochloa chinensis. Kind of data set: Test Example 3: herbicidal effect by foliage application, Wagner pot (symbol D). To be noted: application herbicide amount 320 g/ha. Summed up: as §4
For data set [9], the system named is Abutilon theophrasti. Kind of data set: Test Example 4: herbicidal effect by soil treatment (symbol M). To be noted: application herbicide amount 320 g/ha. An outline of the steps: as §2
For data set [10], the system named is wheat. Kind of data set: Test Example 5: effect on crop by foliage application, plastic box (symbol e). To be noted: 320 g/ha, 3 weeks after application. Summed up:
as §3

Data set [11] deals with beet. Kind of data set: Test Example 5: effect on crop by foliage application, plastic box (symbol f). To be noted: 320 g/ha, 3 weeks after application. Summed up: as §3
Data set [12] concerns Scirpus juncoides. Kind of data set: Test Example 2: herbicidal activity, application during weed generation in submerged conditions (symbol B). To be noted: Table 23; application herbicide amount 320 g/ha; grade 0-5 by criteria of Test Example 1. Summed up:
(§5)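 Flooded-soil post-emergence test: emulsion of compound, water-diluted to target rate, applied to paddy water surface at 1–2 leaf stage of mixed-sown weeds (alluvial soil, 4 cm water, 25–30° C. greenhouse); visual rating 3 weeks after application.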

Data set [13] deals with Amaranthus retroflexus. Kind of data set: Test Example 5: herbicidal effect by foliage application, plastic box (symbol N). To be noted: 320 g/ha, 3 weeks after application. An outline of the steps: as §1
Data set [14] deals with Amaranthus retroflexus. Kind of data set: Test Example 4: herbicidal effect by soil treatment (symbol N). To be noted: application herbicide amount 320 g/ha. An outline of the steps:
as §2

In data set [15] the test system is Stellaria media. Kind of data set: Test Example 5: herbicidal effect by foliage application, plastic box (symbol P). To be noted: 320 g/ha, 3 weeks after application. An outline of the steps: as §1
For data set [16], the system named is Chenopodium album. Kind of data set: Test Example 5: herbicidal effect by foliage application, plastic box (symbol O). To be noted: 320 g/ha, 3 weeks after application. An outline of the steps: as §1
Data set [17] relates to Apera spica-venti. Kind of data set: Test Example 4: herbicidal effect by soil treatment (symbol L). To be noted: application herbicide amount 320 g/ha. An outline of the steps: as §2
In data set [18] the test system is Veronica persica. Kind of data set: Test Example 5: herbicidal effect by foliage application, plastic box (symbol R). To be noted: 320 g/ha, 3 weeks after application. An outline of the steps: as §1
The subject of data set [19] is Echinochloa oryzacola Vasing. Kind of data set: Test Example 2: herbicidal activity, application during weed generation in submerged conditions (symbol A). To be noted: Table 23; application herbicide amount 320 g/ha; grade 0-5 by criteria of Test Example 1. An outline of the steps: as §5
For data set [20], the system named is Digitaria ciliaris. Kind of data set: Test Example 4: herbicidal effect by soil treatment (symbol F). To be noted: application herbicide amount 320 g/ha. Summed up:
as §2

On to `CCOC(=O)C(C(=O)C(F)(F)F)C1CC(O)=C(c2c(C)cc(C)cc2C)C1=O` (stereo not drawn) [2-010], for which the “F: Digitaria ciliaris, herbicidal effect grade” value (“F: Digitaria ciliaris” for short) in data set [1] and in [20] was 0 (Herbicidal ratio of 5% or lower (almost no effect)) throughout. Moreover, the “g: rapeseed, effect on crop grade” value in data set [2] is 0 (Herbicidal ratio of 5% or lower (almost no effect)). The “K: Lolium multiflorum Lam., herbicidal effect grade” value in data set [3] was 0 (Herbicidal ratio of 5% or lower (almost no effect)). Moreover, the “b: directly sowed rice plant, effect on crop grade” value (“b: directly sowed rice plant” below) in [4] is given as 0 (Herbicidal ratio of 5% or lower (almost no effect)). In addition, the “herbicidal effect on H (Echinochloa crus-galli var. crus-galli), grade 0-5” value (“herbicidal effect on H” below) in data set [5] is 3 (Herbicidal ratio of 40% or higher and lower than 70%). For the same compound, the “H: Echinochloa crus-galli var. crus-galli, herbicidal effect grade” value in data set [6] is recorded as 0 (Herbicidal ratio of 5% or lower (almost no effect)). In addition, the “I: Avena fatua, herbicidal effect grade” value in data set [7] is reported as 0 (Herbicidal ratio of 5% or lower (almost no effect)). For the same compound, the “herbicidal effect on D (Leptochloa chinensis), grade 0-5” value (from here on “herbicidal effect on D”) in [8] is listed as 0 (Herbicidal ratio of 5% or lower (almost no effect)). In addition, the “M: Abutilon theophrasti, herbicidal effect grade” value (shortened to “M: Abutilon theophrasti”) in data set [9] was 0 (Herbicidal ratio of 5% or lower (almost no effect)). In addition, in data set [10], the “e: wheat, effect on crop grade” value is reported as 0 (Herbicidal ratio of 5% or lower (almost no effect)). For the same compound, in data set [11], the “f: beet, effect on crop grade” value is recorded as 0 (Herbicidal ratio of 5% or lower (almost no effect)). Moreover, in data set [12], the “Herbicidal effect grade, B: Scirpus juncoides” value (shortened to “Herbicidal effect grade, B”) is listed as 0 (Herbicidal ratio of 5% or lower (almost no effect)). Further, the “N: Amaranthus retroflexus, herbicidal effect grade” value (from here on “N: Amaranthus retroflexus”) in [13] and in data set [14] was 0 (Herbicidal ratio of 5% or lower (almost no effect)) in each case. Also, the “P: Stellaria media, herbicidal effect grade” value (“P: Stellaria media” below) in data set [15] was 0 (Herbicidal ratio of 5% or lower (almost no effect)). Besides, the “O: Chenopodium album, herbicidal effect grade” value (“O: Chenopodium album” below) in data set [16] is recorded as 0 (Herbicidal ratio of 5% or lower (almost no effect)). The “L: Apera spica-venti, herbicidal effect grade” value (from here on “L: Apera spica-venti”) in [17] is 0 (Herbicidal ratio of 5% or lower (almost no effect)). Further, in [18], the “R: Veronica persica, herbicidal effect grade” value (shortened to “R: Veronica persica”) is given as 0 (Herbicidal ratio of 5% or lower (almost no effect)). Further, the “Herbicidal effect grade, A: Echinochloa oryzacola Vasing.” value in data set [19] was 0 (Herbicidal ratio of 5% or lower (almost no effect)).
Regarding `CCOC(=O)C(C(=O)Cc1ccccc1)C1CC(O)=C(c2c(C)cc(C)cc2C)C1=O` (stereo not drawn) [2-011], the “F: Digitaria ciliaris” value in [1] and in data set [20] was 0 (Herbicidal ratio of 5% or lower (almost no effect)) throughout. For the same compound, the “g: rapeseed, effect on crop grade” value in [2] is recorded as 0 (Herbicidal ratio of 5% or lower (almost no effect)). For the same compound, the “K: Lolium multiflorum Lam., herbicidal effect grade” value in data set [3] was 0 (Herbicidal ratio of 5% or lower (almost no effect)). For the same compound, the “b: directly sowed rice plant” value in data set [4] was 3 (Herbicidal ratio of 40% or higher and lower than 70%). In addition, the “herbicidal effect on H” value in data set [5] is recorded as 0 (Herbicidal ratio of 5% or lower (almost no effect)). In addition, the “H: Echinochloa crus-galli var. crus-galli, herbicidal effect grade” value in data set [6] is listed as 0 (Herbicidal ratio of 5% or lower (almost no effect)). In data set [7], the “I: Avena fatua, herbicidal effect grade” value is 0 (Herbicidal ratio of 5% or lower (almost no effect)). Moreover, the “herbicidal effect on D” value in [8] is 0 (Herbicidal ratio of 5% or lower (almost no effect)). In addition, in [9], the “M: Abutilon theophrasti” value is listed as 0 (Herbicidal ratio of 5% or lower (almost no effect)). Also, the “e: wheat, effect on crop grade” value in data set [10] is recorded as 0 (Herbicidal ratio of 5% or lower (almost no effect)). Further, in data set [11], the “f: beet, effect on crop grade” value is 0 (Herbicidal ratio of 5% or lower (almost no effect)). The “Herbicidal effect grade, B” value in data set [12] is 0 (Herbicidal ratio of 5% or lower (almost no effect)). In addition, the “N: Amaranthus retroflexus” value in data set [13] and in data set [14] was 0 (Herbicidal ratio of 5% or lower (almost no effect)) in each case. Moreover, the “P: Stellaria media” value in [15] is recorded as 0 (Herbicidal ratio of 5% or lower (almost no effect)). For the same compound, the “O: Chenopodium album” value in data set [16] was 0 (Herbicidal ratio of 5% or lower (almost no effect)). Moreover, in data set [17], the “L: Apera spica-venti” value is given as 0 (Herbicidal ratio of 5% or lower (almost no effect)). Moreover, in [18], the “R: Veronica persica” value was 0 (Herbicidal ratio of 5% or lower (almost no effect)). Further, in [19], the “Herbicidal effect grade, A: Echinochloa oryzacola Vasing.” value is 0 (Herbicidal ratio of 5% or lower (almost no effect)).
`CCOC(=O)C(CC)(C(C)=O)C1CC(O)=C(c2c(C)cc(C)cc2C)C1=O` (stereo not drawn) [2-012]: the “F: Digitaria ciliaris” value in data set [1] and in data set [20] was 0 (Herbicidal ratio of 5% or lower (almost no effect)) each time. The “g: rapeseed, effect on crop grade” value in [2] is on record as 0 (Herbicidal ratio of 5% or lower (almost no effect)). In addition, in data set [3], the “K: Lolium multiflorum Lam., herbicidal effect grade” value is 0 (Herbicidal ratio of 5% or lower (almost no effect)). In addition, in data set [4], the “b: directly sowed rice plant” value was 4 (Herbicidal ratio of 70% or higher and lower than 90%). Further, the “herbicidal effect on H” value in [5] is given as 0 (Herbicidal ratio of 5% or lower (almost no effect)). In data set [6], the “H: Echinochloa crus-galli var. crus-galli, herbicidal effect grade” value is 0 (Herbicidal ratio of 5% or lower (almost no effect)). For the same compound, the “I: Avena fatua, herbicidal effect grade” value in [7] was 0 (Herbicidal ratio of 5% or lower (almost no effect)). The “herbicidal effect on D” value in data set [8] is 0 (Herbicidal ratio of 5% or lower (almost no effect)). The “M: Abutilon theophrasti” value in data set [9] is given as 0 (Herbicidal ratio of 5% or lower (almost no effect)). Further, the “e: wheat, effect on crop grade” value in data set [10] is listed as 0 (Herbicidal ratio of 5% or lower (almost no effect)). The “f: beet, effect on crop grade” value in data set [11] was 0 (Herbicidal ratio of 5% or lower (almost no effect)). Also, the “Herbicidal effect grade, B” value in [12] is recorded as 0 (Herbicidal ratio of 5% or lower (almost no effect)). Further, the “N: Amaranthus retroflexus” value in data set [13] and in data set [14] was 0 (Herbicidal ratio of 5% or lower (almost no effect)) throughout. The “P: Stellaria media” value in [15] was 0 (Herbicidal ratio of 5% or lower (almost no effect)). In addition, in data set [16], the “O: Chenopodium album” value is recorded as 0 (Herbicidal ratio of 5% or lower (almost no effect)). Also, the “L: Apera spica-venti” value in [17] is given as 0 (Herbicidal ratio of 5% or lower (almost no effect)). Further, the “R: Veronica persica” value in [18] is recorded as 0 (Herbicidal ratio of 5% or lower (almost no effect)). Moreover, the “Herbicidal effect grade, A: Echinochloa oryzacola Vasing.” value in data set [19] was 0 (Herbicidal ratio of 5% or lower (almost no effect)).

The values above are taken from patent publication US11000033B2, “Ketone or oxime compound, and herbicide” (NISSAN CHEMICAL CORPORATION, priority 2014, dated 2021).
